What was measured:
[1] = system: carrageenin induced oedema in rat paw; experiment: carrageenin induced oedema in rat paw (antiinflammatory activity); assay type: in vivo; conditions: 75 mg/kg per os; for AREA Δ % (paw volume): control 243.3; for paw average volume, 30' / paw average volume, 1h / paw average volume, 2h / paw average volume, 3h / paw average volume, 6h / paw average volume, Basal: 5 animals
Description: The antiinflammatory activity of MR-[…] in comparison with acetylsalicylic acid was determined by the test of carrageenin induced oedema in rat paw, according to the method of Winter, […], Ness. (Proc. Soc. Exp. Biol. Med., 111, 544-547, 1962). […] The paw volume was determined using an apparatus supplied by U. Basile Ltd.

[2] = tail-flick test (analgesic activity); assay type: in vivo; conditions: 75 mg/kg os; for AREA Δ % (tail-flick): control 170.45
Description: The analgesic activity was determined according to the tail-flick test, employing an apparatus supplied by Socrel Ltd., Milano, Italy.

[3] = plasmatic kinetics in rat after oral administration
Description: The plasmatic kynetic of acetylsalicylic acid in rat was compared after oral administration of equimolecular doses of MR-Y134 and […] (466 mg/kg MR-Y134 and 300 mg/kg ASA respectively).
The compounds were both administered in the form of 2% gum arabic suspension to rats fastened for 12 hours. Each animal was administered with 1.0 ml of solution.
The rats were killed at the following times: 1, 2, 4, 8, 12 hours after the administration of the compounds.
The blood sample was drawn in heparin.

gastric mucosa = experiment: gastro-injuring action on the gastric mucosa; assay type: in vivo, Male Sprague-Dawley rats; conditions: oral, equimolecular doses, rats fasted 48 hours
Description: The action on the gastric mucosa of MR-Y134 in comparison with equimolecular doses of ASA was determined according to the method described by Pisanti and Volterra (I1 Farmaco, vol. 25, (2), 105).
The products were administered orally.
Male Sprague-Dawley rats were used fastened for 48 hours with water ad libitum.
The control group was administered with the solvent only (1% carboxymethylcellulose).

## CC(=O)Oc1ccccc1C(=O)O [ASA, acetylsalicylic acid]
[1]
  % inhibition versus control (area, paw oedema): 53.41%
  AREA Δ % (paw volume): 113.35 Δ %
  Percent variation of paw volume with respect to 0 time, 30': 9.71%
  paw average volume, 30': 1.69 mL
  Percent variation of paw volume with respect to 0 time, 1h: 13.57%
  paw average volume, 1h: 1.75 mL
  Percent variation of paw volume with respect to 0 time, 2h: 16.30%
  paw average volume, 2h: 1.79 mL
  Percent variation of paw volume with respect to 0 time, 3h: 17.71%
  paw average volume, 3h: 1.81 mL
  Percent variation of paw volume with respect to 0 time, 6h: 62.13%
  paw average volume, 6h: 2.49 mL
  paw average volume, Basal: 1.55 mL
[2]
  % inhibition versus control (area, tail-flick): 16.61%
  AREA Δ % (tail-flick): 142.13 Δ %
  Percent variation of reaction time with respect to 0 time, 1h: 23.01%
  Reaction time, 1h: 7.16 s
  Percent variation of reaction time with respect to 0 time, 3h: 26.66%
  Reaction time, 3h: 6.82 s
  Percent variation of reaction time with respect to 0 time, 6h: 27.31%
  Reaction time, 6h: 6.76 s
  Reaction time, Basal: 9.30 s

## O=C([O-])c1ccccc1O.[Na+] [SODIUM SALICYLATE, sodium salicylate]
[3]; oral, equimolecular doses
  time of plasma peak: second hour
[3]; rat, in vivo, po, 300 mg/kg
  concentration at 1 h: 362 µg/mL
  concentration at 2 h: 534 µg/mL
  concentration at 4 h: 470 µg/mL
  concentration at 8 h: 456 µg/mL
  concentration at 12 h: 325 µg/mL

## O=C(Oc1ccccc1C(=O)O)c1cccs1 [MR-Y134, 2-(2-thenoyloxy)-benzoic acid]
[1]
  % inhibition versus control (area, paw oedema): 47.51%
  AREA Δ % (paw volume): 127.69 Δ %
  Percent variation of paw volume with respect to 0 time, 30': 8.03%
  paw average volume, 30': 1.71 mL
  Percent variation of paw volume with respect to 0 time, 1h: 14.96%
  paw average volume, 1h: 1.82 mL
  Percent variation of paw volume with respect to 0 time, 2h: 14.18%
  paw average volume, 2h: 1.8 mL
  Percent variation of paw volume with respect to 0 time, 3h: 20.46%
  paw average volume, 3h: 1.9 mL
  Percent variation of paw volume with respect to 0 time, 6h: 76.48%
  paw average volume, 6h: 2.79 mL
  paw average volume, Basal: 1.58 mL
[1]; equal amounts by weight
  antiinflammatory activity compared with ASA: good antiinflammatory activity, substantially equal to the one of ASA
[2]
  % inhibition versus control (area, tail-flick): 50.18%
  AREA Δ % (tail-flick): 84.91 Δ %
  Percent variation of reaction time with respect to 0 time, 1h: 9.36%
  Reaction time, 1h: 8.9 s
  Percent variation of reaction time with respect to 0 time, 3h: 18.94%
  Reaction time, 3h: 7.96 s
  Percent variation of reaction time with respect to 0 time, 6h: 15.68%
  Reaction time, 6h: 8.28 s
  Reaction time, Basal: 9.82 s
[2]; equal amounts by weight
  analgesic activity compared with ASA: three times higher than the one of ASA
Gastric mucosa
  gastro-injuring activity compared with ASA: scarce gastro-injuring activity, substantially lower than the one of ASA
[3]; rat, in vivo, po
  height of plasma peak compared with sodium salicylate: substantially higher
  persistence in the bloodstream: higher and more prolonged persistence in the bloodstream
  time of plasma peak: third hour
